Assays:
[1] = target: T1, 5-HT2A receptor (Homo sapiens, UniProt P28223); assay: affinity to human serotonin receptor 5-HT2A; format: binding; conditions: calculated from the Cheng-Prusoff equation
Text: (§1) Affinity (Ki, nM) for compound I to human serotonin receptors calculated from the Cheng-Prusoff equation

[2] = target: T2, [3H]-noradrenaline reuptake (NAT) (Rattus norvegicus, UniProt Q63380); assay: inhibition of [3H]-noradrenaline reuptake in rat synaptosomes; format: biochemical
T2 construct: from tissue
Text: (§2) IC50 (nM) values Compound I inhibition of the reuptake in rat synaptosomes:
(§3) [^3H]-serotonin: 2.4 [^3H]-noradrenaline: 12

[3] = target: T3, 5-HT2C receptor (Homo sapiens, UniProt P28335); assay: functional assay, 5-HT2C antagonism; format: cell-based; conditions: read-out: Kb, antagonist of the 5-HT2C receptor
T3 sequence (P28335 33-458): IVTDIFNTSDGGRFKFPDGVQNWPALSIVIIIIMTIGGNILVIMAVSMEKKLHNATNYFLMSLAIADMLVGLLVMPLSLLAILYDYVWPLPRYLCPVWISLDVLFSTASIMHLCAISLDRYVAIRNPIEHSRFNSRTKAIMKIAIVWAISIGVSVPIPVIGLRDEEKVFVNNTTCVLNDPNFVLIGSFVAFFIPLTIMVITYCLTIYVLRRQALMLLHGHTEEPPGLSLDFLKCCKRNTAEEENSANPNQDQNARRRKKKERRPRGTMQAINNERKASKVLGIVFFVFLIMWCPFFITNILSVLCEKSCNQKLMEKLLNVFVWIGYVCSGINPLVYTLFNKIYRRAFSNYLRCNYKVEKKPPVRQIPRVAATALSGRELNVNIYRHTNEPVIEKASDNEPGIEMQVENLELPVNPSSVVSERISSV

[4] = target: T4, [3H]-serotonin reuptake (SERT) (Rattus norvegicus, UniProt P31652); assay: inhibition of [3H]-serotonin reuptake in rat synaptosomes; format: biochemical
T4 construct: from tissue
Text: as §2, §3

[5] = target: T1, 5-HT2A receptor; assay: functional FLIPR assay, 5-HT2A antagonism; format: cell-based; conditions: read-out: Kb, antagonist of the 5-HT2A receptor
[6] = tested on: mice, formalin-injected hind paw; assay: formalin model of neuropathic pain; format: in vivo; conditions: for time spent licking the injured paw, 0-5 minutes: first phase, vehicle 51; for time spent licking the injured paw, 20-30 minutes: second phase, vehicle 66
Protocol: There are several well validated animal models of neuropathic pain available for assess of antinociceptive potential of drugs. Among the most frequently used model are chronic constriction injury models (for example Bennett and Xie, Pain, 1988) and the capsaicin (Gilchrist et al., Pain 1996) and formalin [Neuropharm., 48, 252-263, 2005; Pain, 51, 5-17, 1992] models. […] In this model, mice receive an injection of formalin (4.5%, 20 μl) into the plantar surface of the left hind paw and are afterwards placed into individual glass beakers (2 l capacity) for observation. The irritation caused by the formalin injection elicits a characteristic biphasic behavioural response, as quantified by the amount of time spent licking the injured paw. The first phase (˜0-10 minutes) represents direct chemical irritation and nociception, whereas the second (˜20-30 minutes) is thought to represent pain of neuropathic origin. The two phases are separated by a quiescent period in which behaviour returns to normal. Measuring the amount of time spent licking the injured paw in the two phases assesses the effectiveness of test compounds to reduce the neuropathic-like pain response.

[7] = target: T3, 5-HT2C receptor; assay: affinity to human serotonin receptor 5-HT2C; format: binding; conditions: calculated from the Cheng-Prusoff equation
Text: as §1

T1 sequence (P28223 whole entry): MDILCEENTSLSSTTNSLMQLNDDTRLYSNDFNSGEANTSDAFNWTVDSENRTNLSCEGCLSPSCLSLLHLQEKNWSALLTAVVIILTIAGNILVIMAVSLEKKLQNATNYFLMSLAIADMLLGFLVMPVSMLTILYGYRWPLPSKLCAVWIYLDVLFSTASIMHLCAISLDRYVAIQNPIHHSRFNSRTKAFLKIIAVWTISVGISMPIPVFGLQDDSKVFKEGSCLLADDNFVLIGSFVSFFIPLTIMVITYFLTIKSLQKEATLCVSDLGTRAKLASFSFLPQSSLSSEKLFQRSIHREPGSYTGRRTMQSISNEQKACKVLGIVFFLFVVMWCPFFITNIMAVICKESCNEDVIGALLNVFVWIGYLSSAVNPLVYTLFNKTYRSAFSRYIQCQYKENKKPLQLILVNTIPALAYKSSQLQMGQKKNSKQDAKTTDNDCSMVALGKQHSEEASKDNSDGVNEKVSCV
T4 sequence (P31652 whole entry): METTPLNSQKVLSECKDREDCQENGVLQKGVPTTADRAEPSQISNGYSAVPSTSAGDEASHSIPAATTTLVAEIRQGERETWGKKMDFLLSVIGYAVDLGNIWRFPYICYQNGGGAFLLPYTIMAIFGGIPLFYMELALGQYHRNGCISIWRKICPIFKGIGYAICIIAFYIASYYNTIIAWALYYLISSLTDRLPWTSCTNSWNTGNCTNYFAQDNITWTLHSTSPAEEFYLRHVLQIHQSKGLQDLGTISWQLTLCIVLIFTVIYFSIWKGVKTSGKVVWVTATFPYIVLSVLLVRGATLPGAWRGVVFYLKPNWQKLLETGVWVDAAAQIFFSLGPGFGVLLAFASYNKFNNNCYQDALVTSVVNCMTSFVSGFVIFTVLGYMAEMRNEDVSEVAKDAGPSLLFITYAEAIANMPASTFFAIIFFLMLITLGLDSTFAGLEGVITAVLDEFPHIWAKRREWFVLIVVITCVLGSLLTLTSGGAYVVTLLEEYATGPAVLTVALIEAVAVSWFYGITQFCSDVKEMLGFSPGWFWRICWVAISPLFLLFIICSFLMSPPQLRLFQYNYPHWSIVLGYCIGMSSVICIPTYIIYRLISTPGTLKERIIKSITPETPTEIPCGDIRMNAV
T2 sequence (Q63380 1-617): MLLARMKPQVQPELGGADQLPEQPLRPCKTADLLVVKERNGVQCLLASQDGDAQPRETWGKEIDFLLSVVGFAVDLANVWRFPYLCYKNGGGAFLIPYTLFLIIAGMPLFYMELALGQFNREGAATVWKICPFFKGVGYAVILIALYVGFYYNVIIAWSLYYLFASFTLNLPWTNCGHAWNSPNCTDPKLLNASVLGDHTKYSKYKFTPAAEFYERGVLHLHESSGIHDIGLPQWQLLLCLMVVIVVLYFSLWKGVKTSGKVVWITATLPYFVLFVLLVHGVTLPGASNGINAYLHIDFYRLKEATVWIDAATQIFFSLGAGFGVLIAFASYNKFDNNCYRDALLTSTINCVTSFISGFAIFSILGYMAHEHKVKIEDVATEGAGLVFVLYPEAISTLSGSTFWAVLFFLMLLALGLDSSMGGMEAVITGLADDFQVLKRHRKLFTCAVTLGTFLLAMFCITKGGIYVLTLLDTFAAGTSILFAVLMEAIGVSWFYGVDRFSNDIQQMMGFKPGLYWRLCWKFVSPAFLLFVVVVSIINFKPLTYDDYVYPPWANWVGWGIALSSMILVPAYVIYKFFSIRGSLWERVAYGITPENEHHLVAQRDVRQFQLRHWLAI

## Cc1ccc(Sc2ccc(F)c(F)c2C2CCNCC2)c(F)c1 [compound I, 4-[2,3-difluoro-6-(2-fluoro-4-methyl-phenylsulfanyl)-phenyl]-piperidine]
[1]
  Ki: 13 nM
[2]
  IC50: 12 nM
[3]
  Kb: ~35 nM
[4]
  IC50: 2.4 nM
[5]
  Kb: ~130 nM
[6]; 0.25 mg/kg s.c
  time spent licking the injured paw, 0-5 minutes: 40 s
  time spent licking the injured paw, 20-30 minutes: 48 s
[6]; 1 mg/kg s.c
  time spent licking the injured paw, 0-5 minutes: 40 s
  time spent licking the injured paw, 20-30 minutes: 21 s
[6]; 2.5 mg/kg s.c
  time spent licking the injured paw, 0-5 minutes: 31 s
  time spent licking the injured paw, 20-30 minutes: 7 s
[6]; 0.25-2.5 mg/kg s.c, in words
  effect in the first phase (direct chemical irritation and nociception): little effect
  effect on time spent licking the injured paw in the second phase (neuropathic pain): clear and dose-dependent decrease
[7]
  Ki: 4.9 nM
